From patent EP0427693A1, “Method for azide displacement of alpha-triflates of 1,5-lactones” (MONSANTO COMPANY, priority 1989, dated 1991)

Tests used:
Type in all cases: biochemical
[1] = target: T1, human liver α-mannosidase (Lysosomal) (Homo sapiens, UniProt O00754); assay: Human liver glycosidase inhibition, lysosomal α-mannosidase; conditions: 1 mM concentration of inhibitor; hydrolysis of 4-umbelliferyl pyrranosides; read-out: % Inhibition α-Mannosidases Lysosomal
T1 construct: from tissue; host or cells: human liver
T1 sequence (O00754 50-1011): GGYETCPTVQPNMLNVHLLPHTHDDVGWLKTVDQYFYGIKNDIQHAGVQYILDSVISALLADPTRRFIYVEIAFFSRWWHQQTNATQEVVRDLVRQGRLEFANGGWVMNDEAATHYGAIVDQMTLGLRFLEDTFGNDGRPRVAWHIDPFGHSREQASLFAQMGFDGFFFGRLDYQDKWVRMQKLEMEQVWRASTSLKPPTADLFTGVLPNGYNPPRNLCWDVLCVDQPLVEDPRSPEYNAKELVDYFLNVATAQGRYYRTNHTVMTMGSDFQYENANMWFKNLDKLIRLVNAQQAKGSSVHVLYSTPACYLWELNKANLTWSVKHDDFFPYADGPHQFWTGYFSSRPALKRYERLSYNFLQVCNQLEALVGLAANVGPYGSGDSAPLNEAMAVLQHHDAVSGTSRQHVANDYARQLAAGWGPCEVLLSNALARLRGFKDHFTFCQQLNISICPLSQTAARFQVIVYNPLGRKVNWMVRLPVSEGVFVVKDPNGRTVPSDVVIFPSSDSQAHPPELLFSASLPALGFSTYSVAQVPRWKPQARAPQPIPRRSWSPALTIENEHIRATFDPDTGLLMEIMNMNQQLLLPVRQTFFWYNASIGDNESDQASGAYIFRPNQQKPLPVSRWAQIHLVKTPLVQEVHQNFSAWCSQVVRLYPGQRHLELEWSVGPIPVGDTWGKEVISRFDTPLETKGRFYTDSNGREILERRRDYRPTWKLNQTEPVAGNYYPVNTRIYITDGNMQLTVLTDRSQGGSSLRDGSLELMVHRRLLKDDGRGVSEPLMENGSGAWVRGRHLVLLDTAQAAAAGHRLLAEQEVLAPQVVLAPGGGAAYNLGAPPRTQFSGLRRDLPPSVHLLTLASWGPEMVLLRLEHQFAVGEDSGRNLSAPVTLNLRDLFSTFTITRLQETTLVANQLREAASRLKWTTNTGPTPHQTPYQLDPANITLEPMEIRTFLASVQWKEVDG

human α-mannosidases = assay: Human liver glycosidase inhibition, α-mannosidases; conditions: human liver glycosidases
human liver α-fucosidase = target: T2, human liver α-fucosidase (Homo sapiens, UniProt P04066); assay: Human liver glycosidase inhibition, α-fucosidase; conditions: for inhibition at 1000 µM: 1 mM concentration of inhibitor, hydrolysis of 4-umbelliferyl pyrranosides; for inhibition of α-fucosidase (in words): human liver glycosidases
T2 construct: from tissue; host or cells: human liver
T2 sequence (P04066 32-466): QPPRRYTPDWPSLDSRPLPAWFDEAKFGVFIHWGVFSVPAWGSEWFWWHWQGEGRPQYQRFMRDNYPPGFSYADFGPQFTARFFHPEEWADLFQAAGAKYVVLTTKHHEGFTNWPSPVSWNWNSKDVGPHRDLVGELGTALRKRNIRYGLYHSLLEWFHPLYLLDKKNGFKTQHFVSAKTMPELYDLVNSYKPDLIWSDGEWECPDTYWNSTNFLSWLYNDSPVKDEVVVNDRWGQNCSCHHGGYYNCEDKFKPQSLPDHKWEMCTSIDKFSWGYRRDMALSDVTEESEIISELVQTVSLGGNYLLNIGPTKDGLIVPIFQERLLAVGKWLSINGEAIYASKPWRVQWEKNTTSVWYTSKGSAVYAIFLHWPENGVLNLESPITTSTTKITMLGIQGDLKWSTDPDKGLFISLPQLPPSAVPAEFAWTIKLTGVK

[2] = target: T3, human liver α-mannosidase (Neutral) (Homo sapiens, UniProt Q9NTJ4); assay: Human liver glycosidase inhibition, neutral α-mannosidase; conditions: 1 mM concentration of inhibitor; hydrolysis of 4-umbelliferyl pyrranosides; read-out: % Inhibition α-Mannosidases Neutral
T3 construct: from tissue; host or cells: human liver
T3 sequence (Q9NTJ4 1-1040): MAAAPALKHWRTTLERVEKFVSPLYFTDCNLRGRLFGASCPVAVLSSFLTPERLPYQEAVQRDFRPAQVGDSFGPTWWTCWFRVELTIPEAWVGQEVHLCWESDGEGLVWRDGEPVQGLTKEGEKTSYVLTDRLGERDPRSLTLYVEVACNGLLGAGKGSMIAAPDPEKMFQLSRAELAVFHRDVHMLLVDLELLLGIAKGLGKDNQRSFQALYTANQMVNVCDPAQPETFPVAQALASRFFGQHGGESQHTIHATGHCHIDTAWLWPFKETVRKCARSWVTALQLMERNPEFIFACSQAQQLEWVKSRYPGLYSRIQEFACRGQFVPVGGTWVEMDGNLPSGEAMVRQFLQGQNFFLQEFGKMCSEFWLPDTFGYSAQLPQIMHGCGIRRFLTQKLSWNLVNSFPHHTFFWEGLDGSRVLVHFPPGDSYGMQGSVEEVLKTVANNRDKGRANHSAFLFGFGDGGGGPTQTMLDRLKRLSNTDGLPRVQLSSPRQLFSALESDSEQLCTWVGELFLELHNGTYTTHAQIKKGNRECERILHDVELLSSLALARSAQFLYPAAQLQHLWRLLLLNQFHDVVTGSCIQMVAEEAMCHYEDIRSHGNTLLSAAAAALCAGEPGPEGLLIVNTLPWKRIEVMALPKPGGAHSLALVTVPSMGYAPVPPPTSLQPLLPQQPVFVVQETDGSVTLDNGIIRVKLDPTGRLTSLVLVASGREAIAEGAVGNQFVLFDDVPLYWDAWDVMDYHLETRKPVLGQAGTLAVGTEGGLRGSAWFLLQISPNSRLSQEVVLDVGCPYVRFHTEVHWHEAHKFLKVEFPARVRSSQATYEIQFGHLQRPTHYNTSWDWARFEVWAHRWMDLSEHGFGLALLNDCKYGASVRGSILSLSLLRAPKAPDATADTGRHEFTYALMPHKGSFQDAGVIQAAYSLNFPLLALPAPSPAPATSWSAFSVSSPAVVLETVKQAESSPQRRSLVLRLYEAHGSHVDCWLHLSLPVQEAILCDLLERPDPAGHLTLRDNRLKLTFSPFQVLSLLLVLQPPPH

[3] = target: T4, human liver α-mannosidase (Golgi II) (Homo sapiens, UniProt Q16706); assay: Human liver glycosidase inhibition, Golgi II α-mannosidase; conditions: 1 mM concentration of inhibitor; hydrolysis of 4-umbelliferyl pyrranosides; read-out: % Inhibition α-Mannosidases Golgi II
T4 construct: from tissue; host or cells: human liver
T4 sequence (Q16706 1-1144): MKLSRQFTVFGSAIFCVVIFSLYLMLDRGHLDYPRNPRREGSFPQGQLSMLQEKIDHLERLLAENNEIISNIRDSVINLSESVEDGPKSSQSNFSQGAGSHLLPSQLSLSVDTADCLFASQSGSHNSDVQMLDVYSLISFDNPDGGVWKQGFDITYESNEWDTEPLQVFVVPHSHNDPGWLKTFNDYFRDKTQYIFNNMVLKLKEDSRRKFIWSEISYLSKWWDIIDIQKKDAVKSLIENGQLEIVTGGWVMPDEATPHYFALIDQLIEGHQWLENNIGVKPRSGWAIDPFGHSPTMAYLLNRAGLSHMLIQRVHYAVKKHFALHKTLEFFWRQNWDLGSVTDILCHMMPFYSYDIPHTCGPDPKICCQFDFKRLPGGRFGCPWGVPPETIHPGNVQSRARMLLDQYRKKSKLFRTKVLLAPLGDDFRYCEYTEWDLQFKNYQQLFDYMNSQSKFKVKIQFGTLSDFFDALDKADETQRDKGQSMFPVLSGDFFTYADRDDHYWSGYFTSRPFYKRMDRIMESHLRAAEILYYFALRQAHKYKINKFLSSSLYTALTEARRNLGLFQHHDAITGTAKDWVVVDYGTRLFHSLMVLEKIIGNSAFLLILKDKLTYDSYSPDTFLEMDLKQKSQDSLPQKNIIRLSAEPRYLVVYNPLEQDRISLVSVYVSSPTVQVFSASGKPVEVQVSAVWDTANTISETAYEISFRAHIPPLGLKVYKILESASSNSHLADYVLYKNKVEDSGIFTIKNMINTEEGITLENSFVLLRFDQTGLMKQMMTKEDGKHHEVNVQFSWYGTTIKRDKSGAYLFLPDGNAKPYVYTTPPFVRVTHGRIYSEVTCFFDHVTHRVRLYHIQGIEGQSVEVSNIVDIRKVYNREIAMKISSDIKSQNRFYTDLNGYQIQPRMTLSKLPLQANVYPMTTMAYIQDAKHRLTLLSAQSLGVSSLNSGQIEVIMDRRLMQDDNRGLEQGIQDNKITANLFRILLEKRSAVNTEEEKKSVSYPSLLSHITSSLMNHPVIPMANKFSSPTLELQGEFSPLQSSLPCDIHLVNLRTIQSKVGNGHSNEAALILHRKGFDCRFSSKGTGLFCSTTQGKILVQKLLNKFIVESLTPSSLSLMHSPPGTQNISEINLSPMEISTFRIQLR

| inhibition at 1000 µM [1] | inhibition of α-mannosidases (in words) (human α-mannosidases) | inhibition at 1000 µM (human liver α-fucosidase) | inhibition of α-fucosidase (in words) (human liver α-fucosidase) | inhibition at 1000 µM [2] | inhibition at 1000 µM [3] | Structure (SMILES) |
| --- | --- | --- | --- | --- | --- | --- |
| 0% | did not inhibit any α-mannosidase | 96% | powerful inhibitors | 0% | 0% | OC[C@@H]1N[C@H](CO)[C@@H](O)[C@@H](O)[C@@H]1O [6-Epi-homomannojirimycin, 2,6-dideoxy-2,6-imino-L-glycero-D-talo-heptitol] |
| 49% | – | 29% | only a weak inhibitor | 30% | 56% | OC[C@H]1N[C@H](CO)[C@@H](O)C(O)[C@@H]1O (stereo partly drawn) [Homomannojirimycin, 2,6-dideoxy-2,6-imino-D-glycero-D-talo-heptitol] |

| Structure (SMILES) | inhibition at 1000 µM [1] | inhibition of α-mannosidases (in words) (human α-mannosidases) | inhibition at 1000 µM (human liver α-fucosidase) | inhibition of α-fucosidase (in words) (human liver α-fucosidase) | inhibition at 1000 µM [2] | inhibition at 1000 µM [3] |
| --- | --- | --- | --- | --- | --- | --- |
| OC[C@H]1NC[C@@H](O)[C@@H](O)[C@@H]1O [Deoxymannojirimycin, reference compound] | 58% | – | 91% | powerful inhibitors | 21% | 45% |
